According to patent US8940936B2, “Aryloxy phenoxy acrylic compound having HIF-1 inhibition activity, method for preparing same, and pharmaceutical composition containing same as an active ingredient” (Korea Research Institute of Bioscience and Biotechnology, priority 2010, dated 2015):

Columns and labels:
[1] = tested on: VEGF (vascular endothelial growth factor A); assay: Expression of HIF-1 target gene VEGF (RT-PCR, HCT116); type: cell-based, human
Procedure: (§1) To investigate HIF-1 inhibition activity of the compound of the present invention, the inhibition of VEGF and EPO, two most representative HIF-1 target genes, by the compound of formula 1 prepared in example 1 was measured. Particularly, the colon cancer cell line HCT116 was used for the measurement as follows.
(§2) The human colon cancer cell line HCT116 was seeded in cell culture vessel at the density of 2×10^5 cell/ml, followed by culture for 24 hours. The cells were pretreated in hypoxic condition (oxygen 1%; nitrogen 94%; carbon dioxide 5%) for 4 hours to induce the accumulation of HIF-1α. The cells were treated with the compound of formula 1 prepared in example 1 at the concentrations of 0, 10, and 20 μM, followed by culture for 12 hours in hypoxic condition. Then, mRNA was extracted by using trizol. To compare the expression with that of HIF-1 target gene treated with the compound prepared in comparative example 1, the control was treated with the compound of comparative example 1 at the concentrations of 0, 10, 15, and 20 μM. From the extracted mRNA, cDNA was synthesized by using RT-PCR kit (Invitrogen). The amounts of mRNAs of the HIF-1α target genes VEGF (vascular endothelial growth factor A) and EPO (erythropoietin) were measured by using RT-PCR and real-time RT-PCR. […]

HCT116 cells = assay: Cell migration inhibition activity (wound-healing experiment); type: cell-based, human; details: 10 μM, 48 hours, FIG. 9
Procedure: To evaluate cell migration inhibition effect of the compound of example 1, wound-healing experiment was performed. Particularly, an insert (Ibidi) was placed in the center of a 6-well cell culture dish and HCT116 cells (3×10^5 cell/ml) were loaded in each well by 70 μl. Medium was filled in around the insert. 24 hours later, the insert was carefully eliminated by using forceps, and the cells were washed with medium carefully not to be detached from the bottom of the culture dish. The control group was added with the diluted medium supplemented with DMSO. The experimental group was added with the diluted medium supplemented with 10 μM of the compound of example 1. 48 hours later, cell migration in each group was observed.

EPO (erythropoietin) = assay: Expression of HIF-1 target gene EPO (RT-PCR, HCT116); type: cell-based, human; details: mRNA, HCT116, hypoxic condition, 0, 10, 20 μM; FIG. 5
Procedure: as §1, §2

[2] = tested on: B16F10 melanoma cell line; assay: Angiogenesis inhibition activity in B16F10 tumor tissue; type: in vivo, mouse; details: FIG. 7, FIG. 8
Procedure: The following experiment was performed to investigate if the compound of formula 1 could inhibit angiogenesis along with the tumor growth.
Particularly, the experimental group composed of 5 female mice (C57BL) at 6 weeks was transplanted with B16F10 melanoma cell line. After the cancer cells were grown, the mice were treated with the compound of formula 1 via intraperitoneal injection at the dose of […] for 5 days. Inhibition of angiogenesis and the tumor growth were observed. In the meantime, the control group was treated with the mixed solution comprising 10% DMAC, 10% cremophor and 80% buffer (pH 10) every day. The comparative group was treated with topotecan at the dose of 2 mg/kg once every other day. Weight changes and the newly generated blood vessels were measured and the results are shown in Table 7, Table 8, FIG. 7, and FIG. 8. The tumor volume shown in Table 8 was calculated by the mathematical formula 1 of experimental example 4 and the inhibition rate was calculated by the mathematical formula 2 of experimental example 4.

## COC(=O)c1cccc(NC(=O)/C=C/Oc2ccc(C34CC5CC(CC(C5)C3)C4)cc2)c1 [Example 1, (E)-3-[3-(4-Adamantan-1-yl-phenoxy)-acryloylamino]-benzoic acid methyl ester]
[1]; internal control gene, HCT116, hypoxic condition
  expression of GAPDH: did not change
[1]; mRNA, HCT116, hypoxic condition, 0, 10, 20 μM, FIG. 5
  expression of VEGF: inhibited the expressions of VEGF and EPO, the HIF-1 target genes, dose-dependently
HCT116 cells
  cell migration: significantly reduced cell migration
EPO (erythropoietin)
  expression of EPO: inhibited the expressions of VEGF and EPO, the HIF-1 target genes, dose-dependently
[2]
  reduction of angiogenesis compared with non-treated group: ~40%
